The text below walks through data of paper PMC6277577, “In Salmonella enterica, OatA (Formerly YjgM) Uses O-Acetyl-Serine and Acetyl-CoA to Synthesize N,O-Diacetylserine, Which Upregulates Cysteine Biosynthesis” (Frontiers in Microbiology, 2018).

One series addresses T1, OatA (formerly YjgM) (Salmonella enterica, UniProt Q08021).
T1 sequence (Q08021 1-167): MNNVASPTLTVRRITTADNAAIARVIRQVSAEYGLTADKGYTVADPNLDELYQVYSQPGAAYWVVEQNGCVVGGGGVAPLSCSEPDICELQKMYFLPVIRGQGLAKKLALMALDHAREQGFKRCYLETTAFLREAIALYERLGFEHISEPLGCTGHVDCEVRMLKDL
In words: isothermal titration calorimetry with purified OatA. The class given is binding. (In general: Isothermal titration calorimetry measures the heat released or taken up as one component is titrated into another.)

Substrate in the series “purified protein”: CC(=O)OC[C@H](N)C(=O)O
Kind of series: purified protein. The class given is biochemical, Salmonella enterica. The following applies: acetyl-CoA positively cooperative (h = […]); no OAS binding seen by ITC under conditions tested, suggesting AcCoA binds before OAS.

For `CC(=O)SCCNC(=O)CCNC(=O)[C@H](O)C(C)(C)COP(=O)(O)OP(=O)(O)OC[C@H]1O[C@@H](n2cnc3c(N)ncnc32)[C@H](O)[C@@H]1OP(=O)(O)O` [acetyl-CoA], the Kd at OatA (formerly YjgM) is about 22 µM.

B1: OatA (formerly YjgM) (Salmonella enterica subsp. enterica serovar Typhimurium str. LT2) (protein)
chain: MNNVASPTLTVRRITTADNAAIARVIRQVSAEYGLTADKGYTVADPNLDELYQVYSQPGAAYWVVEQNGCVVGGGGVAPLSCSEPDICELQKMYFLPVIRGQGLAKKLALMALDHAREQGFKRCYLETTAFLREAIALYERLGFEHISEPLGCTGHVDCEVRMLKDL
B1: the Michaelis-Menten constant (Km) in “purified protein” stood at 740 µM.

Usually Kd stands for a measure of binding affinity in units of concentration. Read a high Kd as a looser complex. Broadly, the Km is the concentration of substrate that gives half-maximal velocity.
